Patent US20230398087A1, “APPLICATION OF BZP IN TREATMENT OF ISCHEMIC CARDIOVASCULAR AND CEREBRAL VASCULAR DISEASES” (priority 2020, published 2023)
Entries after “also recorded” stand apart in the source; their conditions may differ.

Experiments:
[1] = system: acute ischemic stroke patients; test: BZP1703 Phase II clinical trial in acute ischemic stroke; format: in vivo, human; conditions: preliminary results
Description: The BZP1703 clinical trial is a multi-center, randomized, double-blind, placebo-controlled Phase II clinical trial. The purpose of the trial is to evaluate the safety and feasibility of different doses of BZP for injection compared with placebo in the treatment of acute ischemic stroke, and to preliminarily explore its effectiveness, so as to provide a basis for the design of Phase III clinical trial.
The trial plans to enroll 375 acute ischemic stroke patients aged 45 to 75 in China. […]
The primary safety endpoint of the BZP1703 trial is SAE, and the primary efficacy endpoint is the difference between the NIHSS score on day 14 and the baseline NIHSS score. Secondary safety endpoints include all-cause death, fatal bleeding and symptomatic intracranial hemorrhage, hemorrhagic transformation of cerebral infarction detected by head magnetic resonance imaging (MRI) on day 14, various adverse events; other bleeding events, AE, AEs of special interest (seizures, bradycardia, atrioventricular block, coagulation abnormalities, proteinuria, leukopenia), number and incidence of patients with new vascular events (ischemic stroke/hemorrhagic stroke/myocardial infarction/vascular death), vital signs, physical examination, laboratory tests (blood routine, blood biochemistry, urine routine, stool routine, coagulation function, etc.), 12-lead electrocardiogram (ECG) and other abnormalities. […]

[2] = system: Bax/Bcl-2-cytochrome C-Caspase-3 mitochondrial apoptosis pathway; PI3K-p-Akt survival signaling pathway; test: Neuronal apoptosis after focal cerebral ischemia-reperfusion injury; design: species or system rats; conditions: rat, in vivo
Description: 2.3 The Protective Effect of BZP on Neuronal Apoptosis after Focal Cerebral Ischemia-Reperfusion Injury in Rats: […]

[3] = Long-term toxicity test, 13 consecutive weeks, rats; format: in vivo
Description: These gradually returned to normal within 1 hour. […] The nervous system and respiratory system reactions in the long-term toxicity test were transient reactions, and the slight anemia and damage to the liver also recovered within the observation period.

[4] = BZP1601 Phase I single dose pharmacokinetics in healthy subjects
Description: Analysis population: Any subjects who have received BZP and undergone biological sample collections and can undergo pharmacokinetic analysis will be included in the pharmacokinetic analysis (excluding the 12.5 mg of pre-study group). The study analysis included 6 BPZ groups (respectively 25 mg, 50 mg, 100 mg, 200 mg, 300 mg, and 400 mg) and the placebo group, and the number of subjects enrolled in each group was 8, 8, 8, 8, 8, 8, 12 subjects, a total of 60 subjects. All 60 subjects enrolled in the formal study were included in the pharmacokinetic analysis set.
The blood samples were collected at 0 minutes, 20 minutes, 40 minutes, minutes (end of infusion), 1.25 hours, 1.5 hours, 2 hours, 2.5 hours, 3 hours, 4 hours, 6 hours, 8 hours, 12 hours, 16 hours, 24 hours, 36 hours, and 48 hours after administration in BZP1601 trial, while in the BZP1702 trial, on the first day of administration, the blood samples were collected only by 24 hours after administration.

MCAO model rats = test: Focal cerebral ischemia-reperfusion injury in rats (MCAO model); format: in vivo
Description: BZP has a protective effect on cerebral ischemia-reperfusion injury and is effective when administered within 4 hours after ischemia, especially within 2 hours after ischemia.
In the follow-up test, the drug was administered at 2 h of ischemia.
BZP can improve motor dysfunction, reduce the volume of cerebral infarction, and reduce cerebral edema. The optimal treatment time window is within 4 hours after ischemia, especially within 2 hours after ischemia.

[5] = Phase I safety and tolerability in healthy subjects (BZP1601 single dose, BZP1702 multiple doses); format: in vivo, human
Description: Analysis population: same as BZP1601 trial. All 36 subjects enrolled were included in the safety analysis data set, 30 subjects in the BZP group and 6 subjects in the placebo group.
The AE related to the study drug occurred from a few minutes to the 9th day after administration, and the symptoms turned to disappear without any clinical intervention.

[6] = single intravenous infusion, 25-400 mg
[7] = BZP 3, 12 and 24 mg/kg, compared with the model group

CCCCC(O)c1ccc(Br)cc1C(=O)[O-].[Na+] (stereo not drawn) [BZP, sodium 5-bromo-2-(α-hydroxypentyl)benzoate]
effectiveness, single dose of 200 mg compared with 100 mg ([1]; acute ischemic stroke patients): significantly more effective than a single dose of 100 mg
effectiveness, 200 mg twice daily compared with 100 mg twice daily ([1]; intravenous infusion for 14 days): significantly more effective than the dosage regimen of a single dose of 100 mg twice daily
Bax/Bcl-2-cytochrome C-Caspase-3 mitochondrial apoptosis pathway [2]: inhibiting
PI3K-p-Akt survival signaling pathway [2]: up-regulating
loss of nerve cells and apoptosis rate [2]: reduce the loss of nerve cells and reduce the apoptosis rate
time to return to normal ([3]; 150 mg/kg): ≤ 1 h
clinical signs at the end of each administration ([3]; 150 mg/kg intravenous once a day, 13 weeks): shortness of breath, prone position, occasional salivation, and disappearance of righting reflex
hematology, blood biochemistry, eye examination and urine routine ([3]; 13 weeks): no obvious abnormalities
NOAEL at 13 weeks ([3]; rat, in vivo, long-term toxicity test, read-out: NOAEL dose): 50 mg/kg
debrominated metabolites ([4]; 200 mg group): no debrominated metabolites were found
metabolites other than BNBP ([4]; BZP1601): did not find other meaningful metabolites except BNBP
Tmax / time of peak blood drug level ([4]; BZP1601, median Tmax similar in each dose group): basically reached the peak blood drug level after the end of administration
half-life ([4]; both, human, plasma, iv): ~8 h
difference in AUC0-t and Cmax between subjects of different genders ([4]; single dose 25-400 mg): not significantly different; also recorded: There was no significant
cumulative urine excretion rate across dose groups ([4]; single dose, each dose group): basically the same
relationship of AUC0-t and Cmax in plasma with the dose [4, 6]: linearly related to the dose
volume of cortical infarction (MCAO model rats; 0.75 mg/kg (P<0.01)): significantly reduce the volume of cortex
effect on volume of cerebral infarction compared with Br-NBP group (MCAO model rats; 3 mg/kg of BZP (P<0.01)): better than that of Br-NBP group
muscle strength and balance beam behavior (MCAO model rats; 12 mg/kg): significantly restore
proportion of necrotic neurons and apoptosis rate (MCAO model rats; 12 mg/kg): reduce the proportion of necrotic neurons and apoptosis rate
effect of administration at 0.5 h and 2 h compared with 4 h after ischemia (MCAO model rats; 12 mg/kg (P<0.01)): better than that of 4 h
volume of cerebral infarction, treatment time window (MCAO model rats; 12 mg/kg at 0.5 h, 2 h or 4 h after ischemia, compared with the model group): significantly reduce
improved effects compared with NBPK group (MCAO model rats; 12 mg/kg, muscle strength, balance beam, necrotic neurons, apoptosis rate): significantly better than those of NBPK group
volumes of cerebral infarction (MCAO model rats; 0.75, 3, 12 and 24 mg/kg, compared with the model group (P<0.01)): significantly reduced
neurobehavioral scores (MCAO model rats; 3, 12 and 24 mg/kg, at 2.5 h and 6 h, compared with the model group (P<0.05, P<0.01)): significantly lower
volumes of brain edema (MCAO model rats; 3, 12 and 24 mg/kg, compared with the model group (P<0.01)): significantly reduced
volumes of striatal and cortical infarction (MCAO model rats; 3 and 12 mg/kg (P<0.01)): significantly reduced the volumes of striatal and cortical infarction
effect on volume of cerebral infarction compared with NBP-K and Br-NBP groups (MCAO model rats; 12 and 24 mg/kg of BZP (P<0.01)): better than those of NBP-K and Br-NBP groups
effect on brain edema compared with NBP-K group and Br-NBP group (MCAO model rats; 24 and 12 mg/kg of BZP (P<0.01)): better than those of NBP-K group and Br-NBP group
brain swelling (MCAO model rats; [7]): significantly reduce
volume of cerebral infarction (MCAO model rats; [7]): significantly reduce
neurobehavior of MCAO model rats (MCAO model rats; BZP 3, 12 and 24 mg/kg, dose-dependent): improve the neurobehavior
treatment time window: time of administration after ischemia at which effective (MCAO model rats; especially within 2 hours after ischemia): ≤ 4 h
effective dose to protect against ischemia-reperfusion injury in rats (MCAO model rats; rat, in vivo): 12 mg/kg
incidence of AE with dose increase ([5]; both Phase I trials): does not increase with the dose increase; also recorded: did not increase with dose increase
overall safety and tolerability in healthy subjects ([5]; both Phase I trials): safe and well tolerated
proportion of AE, BZP groups compared with the placebo group ([5]; both Phase I trials): no statistical difference
death, SAE, AE leading to drop out, other important AE ([5]; both clinical trials): no death, SAE, AE leading to drop out, or other important AE
dose-limiting toxicity (DLT) ([5]; both clinical trials): No dose-limiting toxicity (DLT) occurred
AE of more than mild severity ([5]; multiple dose trial, 100 mg group, AE of others mild): one case of moderate hypotension
AE judged by the investigator to be related to study drug, multiple doses ([5]; multiple doses, dose group per AE): administration site pain; also recorded: hypotension; also recorded: hypokalemia; also recorded: decreased diastolic blood pressure
safety and tolerance ([5]; multiple intravenous infusions, 50 to 200 mg): good safety and tolerance
AE judged by the investigator to be related to study drug, single dose ([5]; single dose, dose group per AE): coagulopathy; also recorded: mild bradycardia; also recorded: decreased white blood cell counts; also recorded: decreased neutrophil cell count/percentage; also recorded: first-degree atrioventricular block; also recorded: proteinuria
safety and tolerance [5, 6]: good safety and tolerance
